{"source": "patent US20070050862A1", "about": "“Promoter and methods of use in plants” (priority 2005, published 2007)", "assay_type_in_all_cases": "in vivo, Arabidopsis thaliana", "key": {"[1]": {"test_system": "AtCel5-GUS expression in the root cap", "assay": "Histochemical GUS staining of AtCel5-GUS seedlings", "method": "For analysis of ethylene regulation, seeds expressing AtCel5-GUS were plated on agar containing half-strength MS medium supplemented with 10 μM of 1 aminocyclo-propane-1 carboxylic acid (ACC; Sigma), made from a stock (1000×) prepared in water. […]\nPlant tissues were collected in 90% acetone and incubated on ice for at least 10 min. Tissues were rinsed with 50 mM NaPO4 pH 7.2, […] and […] and then placed in staining solution (2 mM 5-bromo-4-chloro-3-indolyl-β-D-[…] [X-Glu; Sigma] in rinse solution), vacuum infiltrated for 10 minutes and finally incubated at 37° C. for 2 hours or overnight. Seedlings were examined using a microscope and photographed with a Digital Nikon 990 Camera."}, "[2]": {"test_system": "AtCel5 transcript", "assay": "RT-PCR of AtCel5 transcript in roots, normalized to KOR", "details": "10 μM ACC", "description": "For comparative RT-PCR analysis of roots exposed to various treatments, or the analysis of expression of the AtCel5 duplicon, a two-step RT-PCR was performed using the Retroscript kit (Ambion, Austin, Tex.). Total root RNA was pretreated with DNAse prior to reverse transcription (Ambion DNA-free kit). The first strand cDNA was prepared with oligo dT primers and used as template for PCR reactions. RT-PCR was normalized using Actin-11 or KOR as internal standards. […] Each cycle included a denaturation and an extension step at 94° C. for 45 seconds, and at 72° C. for 70 seconds, respectively. The annealing step was carried out for 30 seconds at the temperature optimal for each primer pair: • AtCel5 (set II), 58° C.; KOR, 62° C.; Actin-11, 60° C.; AtCel3, 65° C."}, "[3]": {"test_system": "AtCel5-GUS expression", "assay": "GUS activity in roots of transgenic AtCel5-GUS seedlings (fluorometric MUG assay)", "details": "for Relative activity (GUS activity relative to controls): overlaid 24 hours with 10 ml of 100 μM ABA, fitted slope ± standard error", "method": "To investigate the influence of indole-3-acetic acid (IAA; Sigma) plants were grown under liquid conditions as well as vertical plates. In all experiments the roots were separated from the shoots, frozen in liquid Nitrogen, and stored at −80° C. prior to analysis. […] Seeds were cold treated for 4 days at 4° C. to promote even germination. Liquid cultures were placed on a rotary shaker at 120 rpm and grown under 24 hours of fluorescent light at room temperature. […] Plates were transferred to the light incubator for 10 days and set in a vertical position. The inhibitory effect of NPA on root gravity perception was examined by observing the direction of root growth in plates set in a horizontal position.\nFor analysis of the effects of ABA, a 100 mM ABA stock solution was prepared in 100% ethanol (13.22 mg ABA/0.5 ml) and then diluted 1000× in water. Seeds expressing AtCel5-GUS were plated on agar basal medium and grown for 7 and 10 days. Under sterile conditions, plates with seedlings were opened and 10 ml of 100 μM ABA was added to bathe the seedlings. Plates were then set horizontally in the light incubator for 24 hours.\nQuantification of GUS activity was performed according to the method of Jefferson et al. (1987) using the fluorogenic substrate MUG (4-methyl-umbelliferyl-β-D-glucuronide). Only root tissue was used to analyze GUS activity. Tissues were ground in MUG extraction buffer and centrifuged for 5 minutes, at maximal speed in a microfuge, to clear the supernatant. An aliquot of crude extract containing the same number of root tips per treatment was mixed with the MUG reaction buffer containing 2 mM MUG and incubated at 37° C. Five or six aliquots were taken from the enzyme reaction at 60 minute intervals. At each time point, the reaction was stopped with 0.2 M Na2CO3. Fluorescence was determined using a one-channel fluorometer (Turner Designs Picofluor) with an excitation range of 365-395 nm and emission wavelengths of greater than 430 nm. The fitted linear slope (±standard error) of fluorescence vs. incubation time was used as a relative measure of GUS content for comparison of controls and treatments."}}}
{"smiles": "NC1(C(=O)O)CC1", "note": "[ACC, 1 aminocyclo-propane-1 carboxylic acid]", "values": [{"measurement": "AtCel5-GUS expression once growth stalled", "setting": "[1]; after 10 days on ACC plates, staining reappeared on fresh media without ACC", "value": "disappeared"}, {"measurement": "GUS staining in the root cap", "setting": "[1]; seedlings grown for 10 days on MS plates containing 10 μM ACC", "value": "still observed"}, {"measurement": "AtCel5 transcript, control vs treated roots", "setting": "[2]", "value": "no significant changes"}]}
{"smiles": "CC1=CC(=O)CC(C)(C)C1(O)/C=C/C(C)=C\\C(=O)O", "note": "(stereo not drawn) [ABA, abscissic acid]", "values": [{"measurement": "AtCel5 expression after ABA treatment", "setting": "[3]; 24 hour ABA treatment, both experiments, vs control", "value": "reduced by almost half"}, {"measurement": "Relative activity (GUS activity relative to controls)", "setting": "[3]; Experiment number 1: seedlings 7 days post-germination", "value": "0.53 ± 0.04"}, {"measurement": "Relative activity (GUS activity relative to controls)", "setting": "[3]; Experiment number 2: seedlings 10 days post germination", "value": "0.42 ± 0.06"}]}
{"smiles": "O=C(O)c1ccccc1C(=O)Nc1cccc2ccccc12", "note": "[NPA, N-1-naphthylphthalamic acid]", "values": [{"measurement": "Quantitative GUS activity in roots compared to controls", "setting": "[3]; agar plates supplemented with 1 μM NPA", "value": "large decrease"}]}
{"smiles": "O=C(O)Cc1c[nH]c2ccccc12", "note": "[IAA, indole-3-acetic acid]", "values": [{"measurement": "Quantitative GUS activity in roots compared to controls", "setting": "[3]; agar plates supplemented with 10 μM IAA", "value": "large decrease"}, {"measurement": "GUS activity compared to controls", "setting": "[3]; seedlings grown on liquid MS containing IAA (50 μM)", "value": "greatly reduced"}]}
